Values quoted from earlier work, collected in patent US5565431A, “Cancer cell inhibitors and method” (priority 1994, dated 1996).

How the values were obtained:
[1] = system: normal colonic mucosa cells; details: Garcia et al. (9)
[2] = system: seven colon cancer cell lines; details: Garcia et al. (9)

For CO[C@H]1[C@@H](OC)C[C@H](C)[C@@H](OC)C2=CC(=O)C=C(NC(=O)/C(C)=C/C=C\[C@H](OC)[C@@H](OC(N)=O)/C(C)=C/[C@@H]1C)C2=O [herbimycin A], the “Inhibition of normal colonic mucosa cells” value [1] is listed as 12% and the “Inhibition of seven colon cancer cell lines” value [2] is listed as “greater than 40%”.
